Assay results: US8383690B2, “Pharmaceutical composition useful for the treatment of peptic ulcer diseases” (Council of Scientific and Industrial Research, priority 2006, dated 2013)
≈ marks a conversion by molar mass, not a printed value. Read-outs that look alike come from different tables or passages of the source.

Tests used:
H. pylori [1] = assay: MIC/MBC by microbroth dilution assay against H. pylori; type: cell-based, Helicobacter pylori
gastric H+,K+-ATPase = molecular target: T1, gastric H+,K+-ATPase (Sus scrofa, UniProt P19156); assay: Anti gastric proton pump activity: H+,K+-ATPase inhibition in pig gastric membranes; type: biochemical
T1 construct: Pig gastric membranes enriched in apical and tubulovesicular membranes were prepared according to [59]; from tissue; host or cells: pig gastric mucosa membranes (apical and tubulovesicular)
T1 sequence (P19156 whole entry): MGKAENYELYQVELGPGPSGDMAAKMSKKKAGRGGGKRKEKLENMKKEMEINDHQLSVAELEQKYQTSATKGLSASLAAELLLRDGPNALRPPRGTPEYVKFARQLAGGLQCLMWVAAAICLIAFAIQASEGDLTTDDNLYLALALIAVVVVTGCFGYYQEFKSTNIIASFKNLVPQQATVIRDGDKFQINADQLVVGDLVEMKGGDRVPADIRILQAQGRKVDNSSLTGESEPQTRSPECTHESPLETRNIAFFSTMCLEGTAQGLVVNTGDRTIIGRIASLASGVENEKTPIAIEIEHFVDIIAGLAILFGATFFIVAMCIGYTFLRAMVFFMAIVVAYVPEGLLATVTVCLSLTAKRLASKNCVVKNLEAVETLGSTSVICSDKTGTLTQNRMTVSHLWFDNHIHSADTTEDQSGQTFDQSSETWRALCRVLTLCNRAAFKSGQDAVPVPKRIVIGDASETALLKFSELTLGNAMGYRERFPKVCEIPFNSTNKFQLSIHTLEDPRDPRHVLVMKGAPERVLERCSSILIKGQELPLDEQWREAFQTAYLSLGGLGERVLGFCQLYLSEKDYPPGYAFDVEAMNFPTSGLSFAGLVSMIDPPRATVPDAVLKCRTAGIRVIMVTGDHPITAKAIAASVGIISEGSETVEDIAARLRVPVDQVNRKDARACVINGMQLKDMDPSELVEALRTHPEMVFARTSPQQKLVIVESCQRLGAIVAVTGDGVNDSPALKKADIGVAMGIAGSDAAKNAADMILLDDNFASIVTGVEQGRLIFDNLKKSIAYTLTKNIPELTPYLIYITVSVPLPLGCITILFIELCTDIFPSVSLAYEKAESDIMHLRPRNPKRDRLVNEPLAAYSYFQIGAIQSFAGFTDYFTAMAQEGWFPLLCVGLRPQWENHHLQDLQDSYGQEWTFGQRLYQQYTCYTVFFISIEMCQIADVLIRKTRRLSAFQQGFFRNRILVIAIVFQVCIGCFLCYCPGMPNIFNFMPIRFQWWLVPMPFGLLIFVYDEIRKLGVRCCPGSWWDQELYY
T1 sequence (P18434 whole entry partner): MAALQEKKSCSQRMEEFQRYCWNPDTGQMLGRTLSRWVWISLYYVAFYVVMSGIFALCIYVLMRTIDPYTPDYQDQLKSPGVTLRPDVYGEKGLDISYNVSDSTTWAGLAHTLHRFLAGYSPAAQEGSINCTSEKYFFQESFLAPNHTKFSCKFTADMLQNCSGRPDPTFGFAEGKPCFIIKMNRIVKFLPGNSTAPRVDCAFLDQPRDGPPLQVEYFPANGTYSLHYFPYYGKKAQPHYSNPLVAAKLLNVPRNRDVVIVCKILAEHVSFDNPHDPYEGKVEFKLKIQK
Protocol: Pig gastric membranes enriched in apical and tubulovesicular membranes were prepared according to [59].
The H^+,K^+-ATPase activity was measured at 37° C. in a 1-mL reaction mixture containing 2 mM MgCl2, 2 mM ATP, 10 mM PIPES (pH 6.8), 10 mM KCl and 10-12 μg membrane protein. An otherwise complete assay mixture was preincubated for 10 min in presence and absence of different concentrations of oenothein C or omeprazole before initiating the reaction with ATP. After incubation for 10 min, the reaction was terminated by the addition of 1 mL ice-chilled TCA (14%).
K^+-stimulated activity, referred to as H^+,K^+-ATPase, was calculated as the difference between the activity in presence of Mg plus K^+ and the basal activity (Mg^+-ATPase) in presence of Mg^+ alone. […] Following enzymatic assay method, the inhibitory activity of oenothein C was assessed. The effects are quantitated in terms of percent inhibition of H^+,K^+-ATPase, and compared with that of omeprazole, a specific inhibitor of gastric H^+,K^+-ATPase.

Solubility in solvents = type: physicochemical; settings: methanol, acetone, DMSO
Protocol: The molecule oenothein C has been isolated from the flowers of the plant Woodfordia fruticosa, abundantly available in the Indian subcontinent. Dried flowers of Woodfordia fruticosa were extracted by soaking overnight with 1:1 methanol-water at room temperature. The process was repeated thrice. The combined extract was evaporated at 45° C. in a rotary evaporator to get the crude extract. This was partitioned between n-butanol and water. The layers were separately evaporated at 45° C. to obtain two fractions. The n-butanol soluble fraction was chromatographed repeatedly over diaion HP-20 and sephadex LH-20 columns following bioassay guided fractionation technique to obtain pure oenothein C as an off-white solid, amorphous in nature.

H. pylori [2] = assay: Disc diffusion sensitivity assay against H. pylori; type: cell-based, Helicobacter pylori; settings: for zone of inhibition at 100 µg/disc / zone of inhibition at 200 µg/disc: Helicobacter pylori, read-out: Inhibition Zone Diameter; for zone of inhibition at 100 µg/disc: 100 μg/disc; for zone of inhibition at 200 µg/disc: 200 μg/disc
Swiss albino mice = assay: Toxicity evaluation (mortality) in Swiss albino mice; type: in vivo
Protocol: The compound oenothein C was checked for mortality of the Swiss albino mice.
Maximum dosage of 250 mg/Kg body weight of compound oenothein C was given to 5 swiss albino mice via oral route.

S. typhi = assay: Antibacterial microbroth dilution assay in Muller Hinton broth (NCCLS); type: cell-based; settings: Salmonella enterica
Text: (§1) Further, the antibacterial activity of oenothein C was examined against four aerobic bacteria (1 gram positive, B. cereus and 3 gram negative, S. typhi, E. coli & K. pneumoniae) by microbroth dilution assay in Muller Hinton broth essentially by following NCCLS (National Commmittee for Clinical Laboratory Standards) guideline.

K. pneumoniae = assay: as above; type: cell-based; settings: Klebsiella pneumoniae, gram negative
Text: as §1

E. coli = assay: as above; type: cell-based; settings: Escherichia coli, gram negative
Text: as §1

B. cereus = assay: as above; type: cell-based; settings: Bacillus cereus, gram positive
Text: as §1

[3] = Helicobacter pylori, ATCC43504, strain ATCC 43504
[4] = Helicobacter pylori, ATCC43504, strain ATCC 43504, read-out: MIC
[5] = Helicobacter pylori, ATCC43629, strain ATCC 43629
[6] = Helicobacter pylori, ATCC43629, strain ATCC 43629, read-out: MIC
[7] = Helicobacter pylori, ATCC49503, strain ATCC 49503
[8] = Helicobacter pylori, ATCC49503, strain ATCC 49503, read-out: MIC
[9] = Helicobacter pylori, NCTC26695, strain NCTC 26695
[10] = Helicobacter pylori, NCTC26695, strain NCTC 26695, read-out: MIC
[11] = Helicobacter pylori, strain 80A
[12] = Helicobacter pylori, strain 80A, read-out: MIC

## CC1(C)S[C@@H]2[C@H](NC(=O)[C@H](N)c3ccc(O)cc3)C(=O)N2[C@H]1C(=O)O [Amoxycillin, amoxycillin]
H. pylori [1]; [3]
  MBC: 0.05 µg/mL (≈ 0.137 µM)
H. pylori [1]; [4]
  MIC: 0.025 µg/mL (≈ 0.0684 µM)
H. pylori [1]; [5]
  MBC: 0.05 µg/mL (≈ 0.137 µM)
H. pylori [1]; [6]
  MIC: 0.025 µg/mL (≈ 0.0684 µM)
H. pylori [1]; [7]
  MBC: 0.05 µg/mL (≈ 0.137 µM)
H. pylori [1]; [8]
  MIC: 0.0125 µg/mL (≈ 0.0342 µM)
H. pylori [1]; [9]
  MBC: < 1 µg/mL
H. pylori [1]; [10]
  MIC: 0.1 µg/mL (≈ 0.274 µM)
H. pylori [1]; [11]
  MBC: 0.08 µg/mL (≈ 0.219 µM)
H. pylori [1]; [12]
  MIC: 0.02 µg/mL (≈ 0.0547 µM)
H. pylori [1]; strain 80A
  MIC: 0.02 µg/mL (≈ 0.0547 µM)
H. pylori [1]; strain ATCC 43504
  MIC: 0.025 µg/mL (≈ 0.0684 µM)
H. pylori [1]; strain ATCC 43629
  MIC: 0.025 µg/mL (≈ 0.0684 µM)
H. pylori [1]; strain ATCC 49503
  MIC: 0.013 µg/mL (≈ 0.0356 µM)
H. pylori [1]; strain NCTC 26695
  MIC: 0.1 µg/mL (≈ 0.274 µM)

## COc1ccc2[nH]c([S+]([O-])Cc3ncc(C)c(OC)c3C)nc2c1 (centres unmarked) [Omeprazole, omeprazole]
Gastric H+,K+-ATPase; 3 μM
  % Inhibition of H+,K+-ATPase: 10-30%
  inhibition at 3 µM: ~20%
Gastric H+,K+-ATPase; 15 μM
  inhibition at 15 µM: 40 to 60%
Gastric H+,K+-ATPase; 30 μM
  inhibition at 30 µM: 80 to 90%
Gastric H+,K+-ATPase; over 3-30 μM
  degree of inhibition of the gastric proton pump: 10-90%

## Cc1ncc([N+](=O)[O-])n1CCO [Metronidazole, metronidazole]
H. pylori [1]; [3]
  MBC: 100 µg/mL (≈ 584 µM)
H. pylori [1]; [4]
  MIC: 50 µg/mL (≈ 292 µM)
H. pylori [1]; [5]
  MBC: 6.25 µg/mL (≈ 36.5 µM)
H. pylori [1]; [6]
  MIC: 1.56 µg/mL (≈ 9.11 µM)
H. pylori [1]; [8]
  MIC: 1.56 µg/mL (≈ 9.11 µM)
H. pylori [1]; [9]
  MBC: 10 µg/mL (≈ 58.4 µM)
H. pylori [1]; [10]
  MIC: 1.56 µg/mL (≈ 9.11 µM)
H. pylori [1]; [11]
  MBC: > 100 µg/mL

## O=C(O[C@H]1[C@H](O)[C@@H](CO)OC(O)[C@@H]1OC(=O)c1cc(O)c(O)c(O)c1Oc1cc2c(=O)oc3c(O)c(O)cc4c(=O)oc(c1O)c2c34)c1cc(O)c(O)c(O)c1 (mixture of isomers) [Oenothein C, D-Glucose 2-[2-[(5,10-dihydro-3,7,8-trihydroxy-5,10-dioxo[1]benzopyrano[5,4,3-cde][1]benzopyran-2-yl)oxy]-3,4,5-trihydroxy benzoate]-3-(3,4,5-trihydroxybenzoate)]
Solubility in solvents
  solubility: soluble in methanol, acetone and DMSO
H. pylori [2]; 100-200 μg/disc, 6 different strains of H. pylori
  inhibition zone diameter, range over strains: 1.7-2.5 cm
H. pylori [2]; strain 80A
  zone of inhibition at 100 µg/disc: 20 mm
  zone of inhibition at 200 µg/disc: 25 mm
H. pylori [2]; strain 121A
  zone of inhibition at 100 µg/disc: 17 mm
  zone of inhibition at 200 µg/disc: 20 mm
H. pylori [2]; strain ATCC 43504, 100 μg/disc
  Inhibition Zone Diameter: 2.0 cm
H. pylori [2]; strain ATCC 43504, 200 μg/disc
  Inhibition Zone Diameter: 2.7 cm
H. pylori [2]; strain ATCC 43629, 100 μg/disc
  Inhibition Zone Diameter: 1.9 cm
H. pylori [2]; strain ATCC 43629, 200 μg/disc
  Inhibition Zone Diameter: 2.3 cm
H. pylori [2]; strain ATCC 49503, 100 μg/disc
  Inhibition Zone Diameter: 1.7 cm
H. pylori [2]; strain ATCC 49503, 200 μg/disc
  Inhibition Zone Diameter: 2.2 cm
H. pylori [2]; strain NCTC 26695, 100 μg/disc
  Inhibition Zone Diameter: 2.0 cm
H. pylori [2]; strain NCTC 26695, 200 μg/disc
  Inhibition Zone Diameter: 2.4 cm
Swiss albino mice; 250 mg/Kg body weight, oral route, 15 days
  health and behaviour under observation: found to remain healthy, and no behavioral abnormality were noted
Swiss albino mice; 250 mg/Kg body weight, oral route, after 24 hours
  mortality: no mortality
Swiss albino mice; single dose level up to 250 mg/kg body weight
  toxic effect: does not show any toxic effect
Gastric H+,K+-ATPase; 0.13 μM
  inhibition at 0.13 µM: 20 to 30%
Gastric H+,K+-ATPase; 0.64 μM
  inhibition at 0.64 µM: 50 to 70%
Gastric H+,K+-ATPase; 1.30 μM
  inhibition at 1.3 µM: 70 to 90%
Gastric H+,K+-ATPase; concentration range 0.13 to 1.3 μM, read-out: IC50 of gastric proton pump activity in vitro
  IC50: 600 to 800 nM
Gastric H+,K+-ATPase; over 0.13-1.30 μM
  degree of inhibition of the gastric proton pump: 20-90%
Gastric H+,K+-ATPase; versus omeprazole, identical conditions
  degree of inhibition of gastric proton pump higher as compared with omeprazole: about 20 fold
H. pylori [1]; 5 strains
  fold less competent in respect of metronidazole MIC values: 2-20 fold
H. pylori [1]; [3]
  MBC: > 50 µg/mL
H. pylori [1]; [4]
  MIC: 25 µg/mL
H. pylori [1]; [5]
  MBC: > 50 µg/mL
H. pylori [1]; [6]
  MIC: 25 µg/mL
H. pylori [1]; [7]
  MBC: 50 µg/mL
H. pylori [1]; [8]
  MIC: 6.25 µg/mL
H. pylori [1]; [9]
  MBC: 25 µg/mL
H. pylori [1]; [10]
  MIC: 12.5 µg/mL
H. pylori [1]; [11]
  MBC: 50 µg/mL
H. pylori [1]; [12]
  MIC: 25 µg/mL
H. pylori [1]; clinical and standard strains of H. pylori
  minimum inhibitory concentration (MIC), range over strains: 6.25 to 25.0 µg/mL
H. pylori [1]; different strains
  fold less potent as compared with clarithromycin and amoxycillin, based on MIC values: 500-1000 fold
S. typhi
  MIC: > 400 µg/mL
K. pneumoniae
  MIC: > 400 µg/mL
E. coli
  MIC: > 400 µg/mL
B. cereus
  MIC: > 400 µg/mL

## CC[C@H]1OC(=O)[C@H](C)[C@@H](O[C@H]2C[C@@](C)(OC)[C@@H](O)[C@H](C)O2)[C@H](C)[C@@H](O[C@@H]2O[C@H](C)C[C@H](N(C)C)[C@H]2O)[C@](C)(OC)C[C@@H](C)C(=O)[C@H](C)[C@@H](O)[C@]1(C)O [Clarithromycin, clarithromycin]
H. pylori [2]; strain 80A, 10 ng/disc
  Inhibition Zone Diameter: 1.8 (10) cm
H. pylori [2]; strain 121A, 10 ng/disc
  Inhibition Zone Diameter: 1.8 (10) cm
H. pylori [2]; strain ATCC 43504, 40 ng/disc
  Inhibition Zone Diameter: 2.0 (40) cm
H. pylori [2]; strain ATCC 43629, 100 ng/disc
  Inhibition Zone Diameter: 1.7 (100) cm
H. pylori [2]; strain ATCC 49503, 5 ng/disc
  Inhibition Zone Diameter: 1.7 (5) cm
H. pylori [2]; strain NCTC 26695, 400 ng/disc
  Inhibition Zone Diameter: 2.0 (400) cm
H. pylori [1]; [3]
  MBC: 0.05 µg/mL (≈ 0.0668 µM)
H. pylori [1]; [4]
  MIC: 0.025 µg/mL (≈ 0.0334 µM)
H. pylori [1]; [5]
  MBC: 0.1 µg/mL (≈ 0.134 µM)
H. pylori [1]; [6]
  MIC: 0.05 µg/mL (≈ 0.0668 µM)
H. pylori [1]; [7]
  MBC: 0.013 µg/mL (≈ 0.0174 µM)
H. pylori [1]; [8]
  MIC: 0.00625 µg/mL (≈ 0.00836 µM)
H. pylori [1]; [9]
  MBC: 0.1 µg/mL (≈ 0.134 µM)
H. pylori [1]; [10]
  MIC: 0.0625 µg/mL (≈ 0.0836 µM)
H. pylori [1]; [11]
  MBC: 0.04 µg/mL (≈ 0.0535 µM)
H. pylori [1]; [12]
  MIC: 0.02 µg/mL (≈ 0.0267 µM)
H. pylori [1]; strain 80A
  MIC: 0.02 µg/mL (≈ 0.0267 µM)
H. pylori [1]; strain ATCC 43504
  MIC: 0.025 µg/mL (≈ 0.0334 µM)
H. pylori [1]; strain ATCC 43629
  MIC: 0.050 µg/mL (≈ 0.0668 µM)
H. pylori [1]; strain ATCC 49503
  MIC: 0.006 µg/mL (≈ 0.00802 µM)
H. pylori [1]; strain NCTC 26695
  MIC: 0.063 µg/mL (≈ 0.0842 µM)

## COC(=O)c1cc(O)c(O)c(O)c1 [methyl gallate]
H. pylori [2]
  activity in the disc diffusion anti-H. pylori test: did not show any activity
Gastric H+,K+-ATPase
  activity in the anti-proton pump test: did not show any activity
H. pylori [1]
  activity in the MIC/MBC anti-H. pylori test: did not show any activity
